According to PubChem BioAssay AID1963979 (Molecular Pharmacology Branch, DTP, NCI, 2024):

Tested on: 361931-004-R-J1-PDC multicell spheroid viability
Experiment: Anticancer human tumor 361931-004-R-J1-PDC patient-derived colon adenocarcinoma cell line growth inhibition [PI3K]
Settings: for IC50: curve of first compound; for viability, T/C: stronger effect = lower value
Outline: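 Tumor cells grown as multi-cell spheroids with HUVEC endothelial cells and MSC fibroblast-like stroma were treated with targeted agents combined with inavolisib, alpelisib, duvelisib or copanlisib. Doses fell in half-log steps from near clinical Cmax, else from 10 microM. Viability was measured.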
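Further: spheroids exposed to agents for seven days before readout.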

For `CC(=O)c1c(C)c2cnc(Nc3ccc(N4CCNCC4)cn3)nc2n(C2CCCC2)c1=O` + CC(Nc1ccc2c(c1)OCCn1cc(N3C(=O)OCC3C(F)F)nc1-2)C(N)=O, the IC50 (second compound 0.00316 µM) was over 100 nM, the IC50 (second compound 0.01 µM) was over 100 nM and the IC50 (second compound 0.0316 µM) was over 100 nM. It also gave an IC50 (second compound 0.1 µM) of over 100 nM, an IC50 (second compound 0.316 µM) of over 100 nM and an IC50 (second compound 1 µM) of 91.6 nM. It also gave a viability, T/C (second compound 0.00316 µM, first compound 0.000316 µM) of 97.9%, a viability, T/C (second compound 0.00316 µM, first compound 0.001 µM) of 106% and a viability, T/C (second compound 0.00316 µM, first compound 0.00316 µM) of 105%. The viability, T/C (second compound 0.00316 µM, first compound 0.01 µM) was 107%, the viability, T/C (second compound 0.00316 µM, first compound 0.0316 µM) was 99.4% and the viability, T/C (second compound 0.00316 µM, first compound 0.1 µM) was 73.7%. It also gave a viability, T/C (second compound 0.01 µM, first compound 0.000316 µM) of 111%, a viability, T/C (second compound 0.01 µM, first compound 0.001 µM) of 104% and a viability, T/C (second compound 0.01 µM, first compound 0.00316 µM) of 104%. It also gave a viability, T/C (second compound 0.01 µM, first compound 0.01 µM) of 99.8%, a viability, T/C (second compound 0.01 µM, first compound 0.0316 µM) of 99.1% and a viability, T/C (second compound 0.01 µM, first compound 0.1 µM) of 76.8%. It also gave a viability, T/C (second compound 0.0316 µM, first compound 0.000316 µM) of 102%, a viability, T/C (second compound 0.0316 µM, first compound 0.001 µM) of 102% and a viability, T/C (second compound 0.0316 µM, first compound 0.00316 µM) of 93.8%. For the same molecule, the viability, T/C (second compound 0.0316 µM, first compound 0.01 µM) was 86.8%, the viability, T/C (second compound 0.0316 µM, first compound 0.0316 µM) was 91% and the viability, T/C (second compound 0.0316 µM, first compound 0.1 µM) was 82.6%. The viability, T/C (second compound 0.1 µM, first compound 0.000316 µM) was 98.8%, the viability, T/C (second compound 0.1 µM, first compound 0.001 µM) was 87.2% and the viability, T/C (second compound 0.1 µM, first compound 0.00316 µM) was 86.1%. For the same molecule, the viability, T/C (second compound 0.1 µM, first compound 0.01 µM) was 89%, the viability, T/C (second compound 0.1 µM, first compound 0.0316 µM) was 90.4% and the viability, T/C (second compound 0.1 µM, first compound 0.1 µM) was 63.8%. The viability, T/C (second compound 0.316 µM, first compound 0.000316 µM) was 96.5%, the viability, T/C (second compound 0.316 µM, first compound 0.001 µM) was 87.1% and the viability, T/C (second compound 0.316 µM, first compound 0.00316 µM) was 90.8%. The viability, T/C (second compound 0.316 µM, first compound 0.01 µM) was 77.6%, the viability, T/C (second compound 0.316 µM, first compound 0.0316 µM) was 81.4% and the viability, T/C (second compound 0.316 µM, first compound 0.1 µM) was 61.9%. For the same molecule, the viability, T/C (second compound 1 µM, first compound 0.000316 µM) was 86.6%, the viability, T/C (second compound 1 µM, first compound 0.001 µM) was 78.5% and the viability, T/C (second compound 1 µM, first compound 0.00316 µM) was 75%. For the same molecule, the viability, T/C (second compound 1 µM, first compound 0.01 µM) was 85.1%, the viability, T/C (second compound 1 µM, first compound 0.0316 µM) was 64.3% and the viability, T/C (second compound 1 µM, first compound 0.1 µM) was 48.9%.
